Assay results as given in US6545045B1, “Prostaglandin E agonists for treatment of glaucoma” (Alcon Manufacturing, Ltd., priority 1998, dated 2003).
Values belong to the compound of their own block, whether it stands above or below them.

Experiments:
[1] = molecular target: T1, EP4 receptors (Cricetulus griseus, UniProt A0A061ILF4); experiment: cAMP production (radioimmunoassay) via EP4 receptors in Chinese hamster ovary cells; assay type: cell-based; conditions: stimulated 15-60 min at 23° C; for EC50: read-out: Potency (EC50, nM) at EP4 Receptors in Chinese Hamster Ovary Cells
T1 construct: Chinese hamster ovary cells (containing EP4 receptors); endogenous in cells; host or cells: Chinese hamster ovary (CHO) cells
Experimental: (§1) Immortalized human non-pigmented ciliary epithelial cells (containing EP2 receptors) and Chinese hamster ovary cells (containing EP4 receptors, Milne et al. Human moncytes and cultured Chinese hamster ovary cells express EP4 receptors positively coupled to adenylate cyclase, Br. J. Pharmacology, 113 (supplement):8 (1994)) were stimulated with various prostaglandins for 15-60 min at 23° C. The cAMP produced by receptor activation was determined by a specific radioimmunoassay as previously described (Sharif et al., Pharmacological analysis of mast cell mediator and neurotransmitter receptors coupled to adenylate cyclase and phospholipase C on immunocytochemically-defined human conjunctival epithelial cells, J. Ocular Pharmacology & Therapeutics, 13, 321-336 (1997); Crider et al. Prostaglandin-stimulated adenylyl cyclase activity via a pharmacologically-defined EP2 receptor in human non-pigmented epithelial cells, J. Ocular Pharmacology & Therapeutics 14:293-304 (1998); Crider et al. Use of a semi-automated, robotic radioimmunoassay to measure cAMP generated by activation of DP-, EP2- and IP-prostaglandin receptors in human ocular and other cell-types, Prostaglandins, Leukotrienes & Fatty Acids 59:77-82 (1998), Milne et al. Human moncytes and cultured Chinese hamster ovary cells express EP4 receptors positively coupled to adenylate cyclase, Br. J. Pharmacology, 113 (supplement):8, (1994)).

[2] = molecular target: T2, EP2 receptors (Homo sapiens, UniProt P43116); experiment: cAMP production (radioimmunoassay) via EP2 receptors in immortalized human non-pigmented ciliary epithelial cells; assay type: cell-based
T2 construct: Immortalized human non-pigmented ciliary epithelial cells (containing EP2 receptors); endogenous in cells; host or cells: immortalized human non-pigmented ciliary epithelial cells
Experimental: as §1

[3] = cAMP production, stimulated 15-60 min at 23° C

T2 sequence (P43116 whole entry): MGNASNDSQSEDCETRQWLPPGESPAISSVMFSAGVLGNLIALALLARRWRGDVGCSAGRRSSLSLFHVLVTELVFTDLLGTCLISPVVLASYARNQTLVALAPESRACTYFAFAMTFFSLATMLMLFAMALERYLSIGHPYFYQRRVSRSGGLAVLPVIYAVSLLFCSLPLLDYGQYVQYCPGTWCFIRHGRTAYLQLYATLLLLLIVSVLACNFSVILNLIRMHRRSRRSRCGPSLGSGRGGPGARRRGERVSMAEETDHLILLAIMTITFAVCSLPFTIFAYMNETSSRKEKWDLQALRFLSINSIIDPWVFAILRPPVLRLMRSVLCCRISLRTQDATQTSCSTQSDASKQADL
T1 sequence (A0A061ILF4 1-488): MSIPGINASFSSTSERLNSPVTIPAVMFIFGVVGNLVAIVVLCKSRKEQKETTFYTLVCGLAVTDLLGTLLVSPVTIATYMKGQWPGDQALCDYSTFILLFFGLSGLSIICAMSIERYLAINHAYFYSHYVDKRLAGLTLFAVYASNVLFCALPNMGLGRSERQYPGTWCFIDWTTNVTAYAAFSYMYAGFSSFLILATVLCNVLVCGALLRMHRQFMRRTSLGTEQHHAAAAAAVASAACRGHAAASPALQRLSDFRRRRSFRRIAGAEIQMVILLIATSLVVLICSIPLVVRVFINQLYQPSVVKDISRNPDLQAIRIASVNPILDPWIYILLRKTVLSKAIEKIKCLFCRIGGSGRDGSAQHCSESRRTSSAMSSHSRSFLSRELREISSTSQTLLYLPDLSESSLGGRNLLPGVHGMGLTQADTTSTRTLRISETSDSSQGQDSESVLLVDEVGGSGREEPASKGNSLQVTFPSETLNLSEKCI

efficacy at EP4 Receptors in Chinese Hamster Ovary Cells [1]: 99%
SMILES: CCCCC(C)(C)[C@H](O)/C=C/[C@H]1CCC(=O)[C@@H]1C/C=C\CCCC(=O)O [11-deoxy-16,16-dimethyl-PGE2, 11-deoxy-16,16-dimethyl PGE2]

Potency (EC50, nM) at EP4 Receptors in Chinese Hamster Ovary Cells [1]: Inactive
Potency (EC50, nM) at EP4 Receptors in Chinese Hamster Ovary Cells ([1]; listed as cloprostenol): inactive
SMILES: O=C(O)CCC/C=C\CC1C(O)CC(O)C1/C=C/C(O)COc1cccc(Cl)c1 (stereo not shown) [Cloprostenol]
Potency (EC50, nM) at EP2 Receptors in Immortalized Human Non-pigmented Ciliary Epithelial Cells [2, 3]: Inactive
Potency (EC50, nM) at EP2 Receptors in Immortalized Human Non-pigmented Ciliary Epithelial Cells ([2]; cAMP production, stimulated 15-60 min at 23° C, listed as cloprostenol): inactive

Potency (EC50, nM) at EP4 Receptors in Chinese Hamster Ovary Cells [1]: Inactive
Potency (EC50, nM) at EP4 Receptors in Chinese Hamster Ovary Cells ([1]; listed as fluprostenol): inactive
SMILES: O=C(O)CCC/C=C\C[C@@H]1[C@@H](/C=C/[C@@H](O)COc2cccc(C(F)(F)F)c2)[C@H](O)C[C@@H]1O (racemic) [Fluprostenol]
Potency (EC50, nM) at EP2 Receptors in Immortalized Human Non-pigmented Ciliary Epithelial Cells [2, 3]: Inactive
Potency (EC50, nM) at EP2 Receptors in Immortalized Human Non-pigmented Ciliary Epithelial Cells ([2]; cAMP production, stimulated 15-60 min at 23° C, listed as fluprostenol): inactive

SMILES: CCCC1([C@H](O)C/C=C/[C@H]2[C@H](O)CC(=O)[C@@H]2CCCCCCC(=O)OC)CCC1 [Butaprost]
selectivity between EP2 and EP4 receptors (relative agonist potency) ([2]; EP2 versus EP4, from EC50 values of Table 1): more EP2-selective

efficacy at EP4 Receptors in Chinese Hamster Ovary Cells [1]: 100%
EC50 [1]: 35 nM
SMILES: CCCCC[C@H](O)/C=C/[C@H]1[C@H](O)CC(=O)[C@@H]1C/C=C\CCCC(=O)O [PGE2]

efficacy at EP4 Receptors in Chinese Hamster Ovary Cells [1]: 100%
SMILES: CCCCC(C)(C)[C@H](O)/C=C/[C@H]1[C@H](O)CC(=O)[C@@H]1C/C=C\CCCC(=O)O [16,16-dimethyl-PGE2, 16,16-dimethyl PGE2]

efficacy at EP4 Receptors in Chinese Hamster Ovary Cells [1]: 86%
EC50 [1]: 38 nM
SMILES: CCCCC[C@H](O)/C=C/[C@H]1CCC(=O)[C@@H]1CCCCCCC(=O)O [11-deoxy-PGE1]
EC50 ([2]; cAMP production, stimulated 15-60 min at 23° C, read-out: Potency (EC50, nM) at EP2 Receptors in Immortalized Human Non-pigmented Ciliary Epithelial Cells): 500 nM
